Results reported in US12472247B2, “Immune adjuvant comprising hepatitis B virus-derived polypeptide” (priority 2020, dated 2025).
Entries after “also recorded” stand apart in the source; their conditions may differ.

What was measured:
[1] = tested on: dendritic cells; experiment: migration of Poly6-treated dendritic cells to lymph nodes after footpad injection; assay type: in vivo, mouse; settings: for ability of activated dendritic cells to migrate to the lymph nodes: 0.1 μM of Poly6, 0.1 μg/ml of LPS, vs DCs without any treatment
Experimental: Dendritic cells activated by treatment with Poly6 peptides for 24 hours were fluorescently labeled (CFSE) and injected into C57BL/6 mice by footpad injection, and after 3 days, the inguinal lymph nodes of the mice were extracted to confirm numbers of labeled dendritic cells.

[2] = tested on: dendritic cells differentiated from mouse bone marrow cells; experiment: inflammatory cytokines secreted by dendritic cells (ELISA); assay type: cell-based; settings: Poly6 0.1, 0.5, 1 μM, 24 hours
Experimental: (§1) The femur and tibia of C57BL/6 mice were isolated, and bone marrow cells therein were isolated. The isolated bone marrow cells were cultured in IMDM medium (supplemented with IL-4 and GM-CSF) to induce differentiation of dendritic cells. After culturing for 6 days, dendritic cells having 80% or more of CD11c markers were used in the experiment (FIG. 3).
When dendritic cells were treated with Poly6 peptides at concentrations of 0.1 μM, 0.5 μM, and 1 μM for 24 hours, inflammatory cytokines TNF-α, IL-6, and IL-12p40 secreted by dendritic cells were confirmed by ELISA.

[3] = tested on: HBV; experiment: anti-HBV effect in HBV-carrier mouse models (hydrodynamic injection); assay type: in vivo, hepatitis B virus
[4] = tested on: HIV-1
[5] = tested on: peripheral blood mononuclear cells (PBMC); experiment: IFN-γ-expressing T cells in PBMC treated with Poly6; assay type: cell-based; settings: human PBMC, IL-2 three days, Poly6 at various concentrations
[6] = tested on: dendritic cells differentiated from mouse bone marrow cells; experiment: maturation markers of dendritic cells by FACS; assay type: cell-based; settings: Poly6 0.1, 0.5, 1 μM, 24 hours
Experimental: as §1
Dendritic cells differentiated from mouse bone marrow cells were treated with Poly6 peptides at each concentration of 0.1 μM, 0.5 μM, and 1 μM and cultured for 24 hours, and then expression of representative maturation markers CD80, CD86, and MHC I, and a migration marker CCR7 of dendritic cells were confirmed by fluorescence activated cell sorting (FACS).

Substance | ability of activated dendritic cells to migrate to the lymph nodes [1] | numbers of dendritic cells found in the lymph nodes ([1]; DCs treated with 0.1 μM Poly6, footpad injection, 3 days, vs untreated DCs) | amounts of TNF-α, IL-6, and IL-12p40 secreted by dendritic cells [2] | anti-HBV effects [3] | anti-HIV-1 effects [4] | IFN-γ-expressing T cells [5] | expression level of the maturation markers of dendritic cells (CD80, CD86, MHC I, CCR7) [6]
GRLVFQ (poly6 peptide) | have an ability to migrate to the lymph nodes on their own | increased statistically significantly | amounts of TNF-α, IL-6, and IL-12p40 secreted by dendritic cells increased | anti-HBV effects in HBV-carrier mouse models were also observed | showed anti-HIV-1 effects | significantly increased IFN-γ-expressing T cells compared to a group treated with PBS; also recorded: concentration-dependent trend was also observed | increased as the concentration of treated Poly6 increased
lipopolysaccharide [LPS, reference compound] | have an ability to migrate to the lymph nodes on their own |  |  |  |  |  | 
